The nature of series [1]: in vitro. Details: species or system HB2, CCD841. The following applies: human, hek293 cells.
Series [2] is described as follows: in vitro. The settings on record: human, ccd841 cells. Details: species or system HB2, HEK293.
The next series concerns the target T1, OTUB2 (OTUB2A) (Homo sapiens, UniProt Q96DC9).
T1 construct: full length residues 1-234, E. coli BL21(DE3)-R3, His tag removed by TEV, construct 27312 Da
T1 sequence (Q96DC9 1-234): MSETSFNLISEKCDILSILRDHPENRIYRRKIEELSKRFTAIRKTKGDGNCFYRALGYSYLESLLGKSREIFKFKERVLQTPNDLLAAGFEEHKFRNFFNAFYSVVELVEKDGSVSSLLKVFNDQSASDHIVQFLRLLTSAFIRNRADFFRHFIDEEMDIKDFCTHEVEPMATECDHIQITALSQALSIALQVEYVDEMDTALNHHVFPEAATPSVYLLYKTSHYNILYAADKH
Details: Intact protein LC/MS covalent labelling, fragments in pools of five, 200 uM each, 4 °C. The following applies: 24 h, 4 °C, pool of five; 200 µM; covalent. How it is done:
(§1) Incubations were performed at 200 μM for each compound and 2 μM of protein (10 μM for BSA) for 24 h at 4 °C with moderate shaking. Incubation buffers varied among proteins (PBS pH 7.4 for QSOX1 and BSA; 10 mM HEPES pH 7.5, 0.3 M NaCl, 0.5 mM TCEP for PCAF, UPS8, and NUDT7; […]; 10 mM Na2HPO4 pH 7.5 100 mM NaCl 5 mM β-mercaptoethanol for NV3CP; 20 mM Na phosphate pH 7.5 for NNMT; […]. The reaction was stopped by quenching with formic acid, 0.4% final concentration. Each protein was incubated with the electrophilic library in pools of five compounds per well. The pool’s composition maximized the difference in mass between fragments in the same well. Incubations were performed with each fragment at 200 μM, for 24 h at 4 °C, to allow the screening of proteins that are not stable for long time periods at higher temperatures. Following incubation, we used intact protein [compound left out] chromatography/mass spectrometry (LC/MS) to identify the fragments and quantify their labeling (Figure 3A). […] There was good agreement between the percent of labeling of NUDT7 by 100 random individual compounds and that obtained in pools of five (R^2=0.78; Figure S6 and Data set 2 in the Supporting Information).

The next series deals with T2, NUDT7 (Homo sapiens, UniProt P0C024).
T2 construct: residues 14-235, E. coli, pNIC28-Bsa4, N-terminal His6 tag removed by TEV, construct 26672 Da
The arrangement: Intact protein LC/MS covalent labelling, fragments in pools of five, 200 uM each, 4 °C. The following applies: 24 h, 4 °C, pool of five; 200 µM; covalent. How it is done:
as §1

The next series deals with T3, PCAF (Homo sapiens, UniProt Q92831).
T3 construct: gene KAT2B
Details: Intact protein LC/MS covalent labelling, fragments in pools of five, 200 uM each, 4 °C. The settings on record: 24 h, 4 °C, pool of five; 200 µM; covalent. On the procedure:
as §1

The target in the next series is T4, BSA (Bos taurus, UniProt P02769).
T4 construct: gene ALB
The arrangement: Intact protein LC/MS covalent labelling, fragments in pools of five, 200 uM each, 4 °C. The settings on record: 24 h, 4 °C, pool of five; 200 µM; covalent. How it is done: as §1

Series [3] in a line: in vitro. Details: species or system CCD841, HEK293. The following applies: human, hb2 cells, read-out: HB-2 Cells Viability (%).

Like-named read-outs stand apart in the source and are kept apart here.

T4 sequence (P02769 whole entry): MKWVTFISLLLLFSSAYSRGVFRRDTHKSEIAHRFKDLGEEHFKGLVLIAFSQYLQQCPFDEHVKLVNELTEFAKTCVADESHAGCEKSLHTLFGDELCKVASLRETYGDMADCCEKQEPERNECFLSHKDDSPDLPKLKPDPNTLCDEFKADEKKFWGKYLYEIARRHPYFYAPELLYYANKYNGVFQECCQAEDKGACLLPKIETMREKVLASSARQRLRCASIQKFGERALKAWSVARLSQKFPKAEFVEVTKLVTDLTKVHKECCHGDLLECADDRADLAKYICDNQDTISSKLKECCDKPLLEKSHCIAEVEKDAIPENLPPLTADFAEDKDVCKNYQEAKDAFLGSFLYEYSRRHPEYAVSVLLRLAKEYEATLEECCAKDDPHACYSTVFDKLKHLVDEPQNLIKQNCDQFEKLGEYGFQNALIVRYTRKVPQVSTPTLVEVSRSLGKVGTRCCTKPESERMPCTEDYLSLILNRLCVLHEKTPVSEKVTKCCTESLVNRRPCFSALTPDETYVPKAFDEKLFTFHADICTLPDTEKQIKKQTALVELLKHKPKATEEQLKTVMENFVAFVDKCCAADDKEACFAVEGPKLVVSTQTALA
T2 sequence (P0C024 14-235): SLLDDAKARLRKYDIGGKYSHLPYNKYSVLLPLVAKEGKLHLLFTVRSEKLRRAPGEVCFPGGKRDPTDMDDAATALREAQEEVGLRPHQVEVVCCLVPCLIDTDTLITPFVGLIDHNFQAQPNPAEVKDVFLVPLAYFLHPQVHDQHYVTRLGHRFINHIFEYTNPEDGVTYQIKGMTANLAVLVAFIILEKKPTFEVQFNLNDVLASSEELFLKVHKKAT
T3 sequence (Q92831 whole entry): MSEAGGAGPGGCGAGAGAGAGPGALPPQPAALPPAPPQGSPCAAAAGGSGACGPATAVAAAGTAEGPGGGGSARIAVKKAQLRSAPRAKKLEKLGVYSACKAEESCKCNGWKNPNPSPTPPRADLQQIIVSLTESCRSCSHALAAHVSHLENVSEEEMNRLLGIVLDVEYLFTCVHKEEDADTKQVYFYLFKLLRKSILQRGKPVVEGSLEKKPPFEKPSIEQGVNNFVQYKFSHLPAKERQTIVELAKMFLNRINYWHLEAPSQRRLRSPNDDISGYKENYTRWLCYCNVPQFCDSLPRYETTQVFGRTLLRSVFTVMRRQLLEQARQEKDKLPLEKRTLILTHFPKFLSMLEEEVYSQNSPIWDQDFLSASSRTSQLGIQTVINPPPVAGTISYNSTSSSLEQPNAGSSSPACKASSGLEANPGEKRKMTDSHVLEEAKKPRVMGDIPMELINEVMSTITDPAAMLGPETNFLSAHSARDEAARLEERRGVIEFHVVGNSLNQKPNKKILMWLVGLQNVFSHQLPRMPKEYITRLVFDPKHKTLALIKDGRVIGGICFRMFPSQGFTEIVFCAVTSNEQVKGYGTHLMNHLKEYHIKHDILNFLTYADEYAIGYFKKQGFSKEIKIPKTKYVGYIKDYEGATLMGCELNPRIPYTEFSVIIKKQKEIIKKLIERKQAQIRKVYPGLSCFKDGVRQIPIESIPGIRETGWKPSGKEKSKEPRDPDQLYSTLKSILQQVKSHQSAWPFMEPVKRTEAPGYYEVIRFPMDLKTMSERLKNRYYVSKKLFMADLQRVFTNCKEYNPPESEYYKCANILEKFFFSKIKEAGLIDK

For the molecule `O=C(CCl)Nc1ccc(F)cc1F` [PCM-0103004], the viability (in general, a read-out of living cells in per cent, often relative to untreated cells) at 48 h, 10 µM in the series “in vitro [1]” came to 32%; in “in vitro [2]”, 62.1%; in the series “in vitro [3]” it was 54.2%. Moreover, at OTUB2 (OTUB2A), the OTUB2 stood at 0.26. Besides, on NUDT7, the NUDT7 turned out to be 0. The molecule further returned a PCAF on PCAF of 0. Further, the BSA at BSA was found to be 0.

Consider `CC(C)CNC(=O)NC(=O)CCl` [PCM-0102502], for which the viability at 48 h, 10 µM in “in vitro [1]” came out at 52.7%; in “in vitro [2]” it was 80.7%; in “in vitro [3]”, 78%. Besides, on OTUB2 (OTUB2A), the OTUB2 came out at 0. Also, on NUDT7, the NUDT7 worked out at 0. Besides, the PCAF at PCAF came out at 0. This molecule had a BSA at BSA of 0.

Regarding `Cc1ccc(NC(=O)CCl)cc1S(N)(=O)=O` [PCM-0102177], the viability at 48 h, 10 µM stood at 1.4% in the series “in vitro [1]”, 28.2% in “in vitro [2]” and 8.9% in the series “in vitro [3]”. This molecule also gave an OTUB2 on OTUB2 (OTUB2A) of 0.27. On NUDT7, the NUDT7 is recorded as 0.1. Also, at PCAF, the PCAF is 0. The molecule also displayed a BSA at BSA of 0.

On to `CCN(C(=O)CCl)c1ccc(F)cc1` [PCM-0102900], for which the viability at 48 h, 10 µM in the series “in vitro [1]” worked out at 10.3%; in the series “in vitro [2]” it was 13.6%; in the series “in vitro [3]” it was 61.2%. The OTUB2 at OTUB2 (OTUB2A) was 0. Moreover, the NUDT7 at NUDT7 was 0.29. This molecule returned a PCAF at PCAF of 0. On BSA, the BSA is reported as 0.

For `Cc1ccc(S(=O)(=O)N2CCN(C(=O)CCl)CC2)cc1` [PCM-0102759], the viability at 48 h, 10 µM in the series “in vitro [1]” turned out to be 8.6%; in the series “in vitro [2]”, 49.9%; in “in vitro [3]”, 7.5%. At OTUB2 (OTUB2A), this molecule gave an OTUB2 of 0. This molecule returned an NUDT7 on NUDT7 of 0.12. In addition, the PCAF at PCAF is 0. The BSA at BSA came out at 0.

For `O=C(CCl)Nc1cccc2ccccc12` [PCM-0102396], the viability at 48 h, 10 µM worked out at 2.4% in the series “in vitro [1]”, 55.8% in “in vitro [2]” and 16.3% in the series “in vitro [3]”. In addition, the OTUB2 on OTUB2 (OTUB2A) is 0.54. This molecule returned an NUDT7 at NUDT7 of 0.12. The same molecule came in with a PCAF on PCAF of 0. Moreover, the BSA at BSA is given as 0.

For `Cc1sc2nc(-c3cccc(NC(=O)CCl)c3)[nH]c(=O)c2c1C` [PCM-0102264], the viability at 48 h, 10 µM in “in vitro [1]” came to 61.2%; in the series “in vitro [2]”, 92.8%; in the series “in vitro [3]” it was 64.6%. At OTUB2 (OTUB2A), this molecule returned an OTUB2 of 0.13. Also, at NUDT7, the NUDT7 was 0. The PCAF at PCAF was determined as 0. The molecule further yielded a BSA on BSA of 0.

With `NC(=O)c1c(NC(=O)CCl)sc2c1CCC2` [PCM-0102164], the viability at 48 h, 10 µM in “in vitro [1]” came to 2.6%; in the series “in vitro [2]” it was 25.6%; in “in vitro [3]” it was 27.2%. The molecule further came in with an OTUB2 on OTUB2 (OTUB2A) of 0. In addition, the NUDT7 at NUDT7 was determined as 0.28. The PCAF at PCAF stood at 0. Further, the BSA on BSA was 0.

On to `Cc1nc(NC(=O)CCl)sc1-c1ccccc1` [PCM-0102788], for which the viability at 48 h, 10 µM was found to be 26.7% in “in vitro [1]”, 23.8% in the series “in vitro [2]” and 35.7% in “in vitro [3]”. The OTUB2 at OTUB2 (OTUB2A) is 0.09. On NUDT7, this molecule returned an NUDT7 of 0.36. At PCAF, the PCAF was determined as 0. This molecule also returned a BSA at BSA of 0.

As to `CN(Cc1ccsc1)C(=O)CCl` [PCM-0102865], the figures for the viability at 48 h, 10 µM in the series “in vitro [1]”, in the series “in vitro [2]” and in the series “in vitro [3]” were 34%, 76.1% and 49.6%, respectively. The OTUB2 at OTUB2 (OTUB2A) was determined as 0. In addition, the NUDT7 on NUDT7 is reported as 0.09. This molecule registered a PCAF on PCAF of 0. Further, the BSA at BSA is listed as 0.

On to `Cl.O=C(CCl)N1CCN(Cc2ccsc2)CC1` [PCM-0102739], for which the viability at 48 h, 10 µM in “in vitro [1]” stood at 42.7%; in the series “in vitro [2]” it was 85.9%; in “in vitro [3]” it was 55.2%. This molecule gave an OTUB2 at OTUB2 (OTUB2A) of 0. This molecule registered an NUDT7 on NUDT7 of 0.07. This molecule also displayed a PCAF at PCAF of 0. For the same molecule, at BSA, the BSA was found to be 0.

As for `N#CC(c1ccc(F)cc1)N1CCN(C(=O)CCl)CC1` (centres unmarked) [PCM-0102341], the viability at 48 h, 10 µM in “in vitro [1]” worked out at 8.6%; in “in vitro [2]”, 60.3%; in “in vitro [3]”, 28.6%. This molecule returned an OTUB2 at OTUB2 (OTUB2A) of 0. Besides, the NUDT7 on NUDT7 was 0. At PCAF, the PCAF is 0. The BSA on BSA is recorded as 0.

As for `O=C(CCl)NC(=O)Nc1ccccc1F` [PCM-0102376], the values for the viability at 48 h, 10 µM in “in vitro [1]”, in “in vitro [2]” and in “in vitro [3]” were 67.8%, 80.5% and 63.5%, respectively. The OTUB2 at OTUB2 (OTUB2A) amounted to 0. This molecule also gave an NUDT7 on NUDT7 of 0. Besides, the PCAF on PCAF was 0. Further, the BSA at BSA is listed as 0.

In the case of `O=C(CCl)N1CCC(c2nc3ccccc3o2)CC1` [PCM-0102920], the viability at 48 h, 10 µM in the series “in vitro [1]” came out at 21.4%; in the series “in vitro [2]” it was 70%; in the series “in vitro [3]” it was 40.1%. For the same molecule, the OTUB2 at OTUB2 (OTUB2A) is listed as 0. This molecule returned an NUDT7 at NUDT7 of 0. On PCAF, this molecule displayed a PCAF of 0. Also, the BSA at BSA was 0.

`CC(NC(=O)CCl)C12CC3CC(CC(C3)C1)C2` (centres unmarked) [PCM-0102402]: the values for the viability at 48 h, 10 µM in the series “in vitro [1]”, in the series “in vitro [2]” and in the series “in vitro [3]” were 55.2%, 73.3% and 67.3%, respectively. The molecule also came in with an OTUB2 on OTUB2 (OTUB2A) of 0.24. Further, on NUDT7, the NUDT7 worked out at 0.07. This molecule returned a PCAF on PCAF of 0. On BSA, the BSA is reported as 0.

For the molecule `CN(Cc1cc(Cl)cc(Cl)c1)C(=O)CCl` [PCM-0102678], the viability at 48 h, 10 µM in the series “in vitro [1]” came out at 22%; in “in vitro [2]”, 22%; in “in vitro [3]”, 8.3%. In addition, at OTUB2 (OTUB2A), the OTUB2 was 0. This molecule displayed an NUDT7 on NUDT7 of 0.45. At PCAF, this molecule gave a PCAF of 0. The BSA at BSA turned out to be 0.

Take `Cc1ccc(CNC(=O)CCl)s1` [PCM-0102973]: the viability at 48 h, 10 µM in the series “in vitro [1]” was 106%; in “in vitro [2]” it was 90.8%; in the series “in vitro [3]”, 98%. At OTUB2 (OTUB2A), this molecule gave an OTUB2 of 0.75. The same molecule displayed an NUDT7 on NUDT7 of 0.11. Further, the PCAF on PCAF is given as 0. Also, on BSA, the BSA is given as 0.19.

In the case of `CC(C#N)(NC(=O)CCl)C1CC1` (centres unmarked) [PCM-0102664], the viability at 48 h, 10 µM in the series “in vitro [1]” stood at 80.8%; in the series “in vitro [2]”, 89.6%; in the series “in vitro [3]”, 99.7%. The same molecule showed an OTUB2 on OTUB2 (OTUB2A) of 0. The molecule further showed an NUDT7 on NUDT7 of 0. Also, on PCAF, the PCAF was found to be 0. This molecule also displayed a BSA at BSA of 0.

Take `CN(Cc1cc(C#N)ccc1F)C(=O)CCl` [PCM-0102897]: the viability at 48 h, 10 µM in the series “in vitro [1]” was 9.6%; in “in vitro [2]”, 69.2%; in the series “in vitro [3]”, 23.8%. Besides, on OTUB2 (OTUB2A), the OTUB2 came out at 0. Further, the NUDT7 on NUDT7 is given as 0.07. This molecule displayed a PCAF on PCAF of 0. The molecule also had a BSA on BSA of 0.

Turning to `C=CC(=O)NC1CCC(N2CCCS2(=O)=O)CC1` (centres unmarked) [PCM-0102568], the viability at 48 h, 10 µM came out at 78% in the series “in vitro [1]”, 93.8% in the series “in vitro [2]” and 107% in the series “in vitro [3]”. Further, at OTUB2 (OTUB2A), the OTUB2 is on record as 0. The NUDT7 on NUDT7 was found to be 0. At PCAF, the PCAF is listed as 0. This molecule displayed a BSA at BSA of 0.

Source of the values: paper PMC6556873, “Rapid Covalent-Probe Discovery by Electrophile-Fragment Screening” (Journal of the American Chemical Society, 2019).
